Values of other authors in patent US20240082296A1, “TREATMENT OF MUSCLE ATROPHY USING DEXTRAN SULFATE” (TX MEDIC AB, priority 2020, published 2024).

Tested on: mouse model of muscle atrophy
Details: after 2 weeks of treatment; cited from earlier work

Which “increase in muscle mass” value does the source give for “recombinant HGF: recombinant hepatocyte growth factor, a naturally occurring neuroprotective and myogenic growth factor” here?
The value was 18%.
